# Experimental data reported in article PMC6522096, “Development and Evaluation of an ^18F-Radiolabeled Monocyclam Derivative for Imaging CXCR4 Expression” (Molecular Pharmaceutics, 2019).
# Target: T1, CXCR4 (Homo sapiens, UniProt P61073)
# T1 construct: full-length receptor overexpressed in U87.CD4.CXCR4 glioma cells
# Assay: […]SDF-1 (CXCL12) displacement on U87.CD4.CXCR4 cells
# Assay type: cell-based
# T1 sequence (P61073 whole entry): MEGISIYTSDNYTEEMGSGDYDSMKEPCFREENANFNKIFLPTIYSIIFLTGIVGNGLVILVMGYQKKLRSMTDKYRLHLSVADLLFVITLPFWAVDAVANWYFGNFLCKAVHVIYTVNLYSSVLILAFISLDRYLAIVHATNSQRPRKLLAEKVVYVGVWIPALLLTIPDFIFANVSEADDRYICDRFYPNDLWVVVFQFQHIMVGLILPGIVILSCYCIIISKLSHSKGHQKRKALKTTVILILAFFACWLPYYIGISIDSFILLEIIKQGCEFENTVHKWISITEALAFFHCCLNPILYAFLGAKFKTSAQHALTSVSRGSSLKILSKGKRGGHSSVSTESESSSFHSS
row,IC50,SMILES
1,89.8 ± 3.5 nM,c1ccc(CNCc2ccc(CN3CCCNCCNCCCNCC3)cc2)nc1 [AMD3465]
2,111 ± 4 nM,"Fc1ccc(CNCCNCc2ccc(CN3CCCNCCNCCCNCC3)cc2)cc1 [compound 5, N^1-(4-((1,4,8,11-Tetraazacyclotetradecan-1-yl)methyl)benzyl)-N^2-(4-fluorobenzyl)ethane-1,2-diamine]"
